Reference: ChEMBL document CHEMBL6177933, “Discovery of Sophoridine α-Aryl Propionamide Derivative ZM600 as a Novel Antihepatic Fibrosis Agent” (J Med Chem, 2024)
Calls of active or inactive are those of the source. No cut-off for these calls is given here.

What was measured:
[1] = target: Nuclear factor NF-kappa-B complex (Homo sapiens) (UniProt Q00653+P19838+Q04206); assay: Inhibition of LPS-induced NFkappaB activation in human LX-2 cells assessed as reduction in p65 phosphorylation preincubated for 2 hrs followed by LPS stimulation and measured after 2 hrs by Western blot analysis; assay type: cell-based; conditions: dose 5-20 µM, time 4.0 hrs
LX-2 = assay: Inhibition of TGFbeta1-induced AKT phosphorylation in human LX-2 cells preincubated for 2 hrs followed by […] stimulation and measured after 2 hrs by Western blot analysis; assay type: cell-based; conditions: dose 5-20 µM, time 4.0 hrs
[2] = target: MAP kinase p38 (Homo sapiens) (UniProt O15264+Q15759+Q16539+P53778); assay: Inhibition of TGFbeta1-induced p38 phosphorylation in human LX-2 cells at 5 to 20 uM preincubated for 2 hrs followed by […] stimulation and measured after 2 hrs by Western blot analysis; assay type: cell-based; conditions: dose 5-20 µM, time 4.0 hrs
Mus musculus [3] = assay: In vivo inhibition of AKT phosphorylation in CCL4-induced C57BL/6J mouse hepatic fibrosis model at 15 to 30 mg/kg, po administered via gavage for 4 weeks starting from 5th week of CCL4 stimulation by Western blot analysis; assay type: functional, organism-based; conditions: dose 15-30 mg/kg
Mus musculus [4] = assay: Antifibrotic activity against CCL4-induced C57BL/6J mouse hepatic fibrosis model assessed as reduction in collagen 1 expression in liver at 15 to 30 mg/kg, po administered via gavage for 4 weeks starting from 5th week of CCL4 stimulation by qRT-PCR analysis; assay type: functional, organism-based; conditions: dose 15-30 mg/kg
Mus musculus [5] = assay: Antifibrotic activity against BDL-induced C57BL/6J mouse hepatic fibrosis model assessed as reduction in collagen 1 expression in liver at 15 to 30 mg/kg, po administered via gavage starting from 3 days post-BDL by Western blot analysis; assay type: functional, organism-based; conditions: dose 15-30 mg/kg
Mus musculus [6] = assay: Antifibrotic activity against CCL4-induced C57BL/6J mouse hepatic fibrosis model assessed as reduction in alphaSMA expression in liver at 15 to 30 mg/kg, po administered via gavage for 4 weeks starting from 5th week of CCL4 stimulation by qRT-PCR analysis; assay type: functional, organism-based; conditions: dose 15-30 mg/kg
RAW264.7 [7] = assay: Antiinflammatory activity in mouse RAW264.7 cells assessed as inhibition of TGFbeta1-induced collagen 1 mRNA expression at 5 to 20 uM preincubated for 2 hrs […] and measured after 48 hrs by qRT-PCR analysis; assay type: functional, cell-based; conditions: dose 5-20 µM, time 50.0 hrs
RAW264.7 [8] = assay: Antiinflammatory activity in mouse RAW264.7 cells assessed as inhibition of TGFbeta1-induced alpha-SMA mRNA expression at 5 to 20 uM preincubated for 2 hrs […] and measured after 48 hrs by qRT-PCR analysis; assay type: functional, cell-based; conditions: dose 5-20 µM, time 50.0 hrs
Mus musculus [9] = assay: Antifibrotic activity against BDL-induced C57BL/6J mouse hepatic fibrosis model assessed as reduction in alphaSMA expression in liver at 15 to 30 mg/kg, po administered via gavage starting from 3 days post-BDL by Western blot analysis; assay type: functional, organism-based; conditions: dose 15-30 mg/kg
Mus musculus [10] = assay: In vivo inhibition of p65 phosphorylation in BDL-induced C57BL/6J mouse hepatic fibrosis model at 15 to 30 mg/kg, po administered via gavage starting from 3 days post-BDL by Western blot analysis; assay type: functional, organism-based; conditions: dose 15-30 mg/kg
Mus musculus [11] = assay: Antifibrotic activity against BDL-induced C57BL/6J mouse hepatic fibrosis model assessed as improvement in histological changes at 15 to 30 mg/kg, po administered via gavage starting from 3 days post-BDL; assay type: functional, organism-based; conditions: dose 15-30 mg/kg
RAW264.7 [12] = assay: Inhibition of LPS-induced NFkappaB transcriptional activity in mouse RAW264.7 cells at 20 uM preincubated for 2 hrs followed by LPS stimulation and measured after 6 hrs by luciferase reporter gene assay relative to control; assay type: cell-based; conditions: time 8.0 hrs
Mus musculus [13] = assay: In vivo inhibition of Smad2 phosphorylation in BDL-induced C57BL/6J mouse hepatic fibrosis model at 15 to 30 mg/kg, po administered via gavage starting from 3 days post-BDL by Western blot analysis; assay type: functional, organism-based; conditions: dose 15-30 mg/kg
Mus musculus [14] = assay: In vivo inhibition of Smad2 phosphorylation in CCL4-induced C57BL/6J mouse hepatic fibrosis model at 15 to 30 mg/kg, po administered via gavage for 4 weeks starting from 5th week of CCL4 stimulation by Western blot analysis; assay type: functional, organism-based; conditions: dose 15-30 mg/kg
Mus musculus [15] = assay: In vivo inhibition of JNK phosphorylation in CCL4-induced C57BL/6J mouse hepatic fibrosis model at 15 to 30 mg/kg, po administered via gavage for 4 weeks starting from 5th week of CCL4 stimulation by Western blot analysis; assay type: functional, organism-based; conditions: dose 15-30 mg/kg
Mus musculus [16] = assay: Antifibrotic activity against CCL4-induced C57BL/6J mouse hepatic fibrosis model assessed as reduction in liver edema at 15 to 30 mg/kg, po administered via gavage for 4 weeks starting from 5th week of CCL4 stimulation by H and E staining based histopathological analysis; assay type: functional, organism-based; conditions: dose 15-30 mg/kg
Mus musculus [17] = assay: In vivo inhibition of ERK1/2 phosphorylation in CCL4-induced C57BL/6J mouse hepatic fibrosis model at 15 to 30 mg/kg, po administered via gavage for 4 weeks starting from 5th week of CCL4 stimulation by Western blot analysis; assay type: functional, organism-based; conditions: dose 15-30 mg/kg
Mus musculus [18] = assay: In vivo inhibition of AKT phosphorylation in BDL-induced C57BL/6J mouse hepatic fibrosis model at 15 to 30 mg/kg, po administered via gavage starting from 3 days post-BDL by Western blot analysis; assay type: functional, organism-based; conditions: dose 15-30 mg/kg
Mus musculus [19] = assay: Antifibrotic activity against CCL4-induced C57BL/6J mouse hepatic fibrosis model assessed as reduction in hard texture of liver at 15 to 30 mg/kg, po administered via gavage for 4 weeks starting from 5th week of CCL4 stimulation; assay type: functional, organism-based; conditions: dose 15-30 mg/kg
[20] = target: Mothers against decapentaplegic homolog 3 (Homo sapiens) (UniProt P84022); assay: Inhibition of TGFbeta1-induced Smad3 phosphorylation in human LX-2 cells preincubated for 2 hrs followed by […] stimulation and measured after 2 hrs by Western blot analysis; assay type: cell-based; conditions: dose 5-20 µM, time 4.0 hrs
Mus musculus [21] = assay: In vivo inhibition of ERK1/2 phosphorylation in BDL-induced C57BL/6J mouse hepatic fibrosis model at 15 to 30 mg/kg, po administered via gavage starting from 3 days post-BDL by Western blot analysis; assay type: functional, organism-based; conditions: dose 15-30 mg/kg
Mus musculus [22] = assay: In vivo inhibition of Smad3 phosphorylation in CCL4-induced C57BL/6J mouse hepatic fibrosis model at 15 to 30 mg/kg, po administered via gavage for 4 weeks starting from 5th week of CCL4 stimulation by Western blot analysis; assay type: functional, organism-based; conditions: dose 15-30 mg/kg
[23] = Cytotoxicity against human LX-2 cells assessed as reduction in cell viability measured after 48 hrs by CCK-8 assay; assay type: toxicity, cell-based
Mus musculus [24] = assay: Antifibrotic activity against CCL4-induced C57BL/6J mouse hepatic fibrosis model assessed as reduction in collagen deposition in liver at 15 to 30 mg/kg, po administered via gavage for 4 weeks starting from 5th week of CCL4 stimulation by Sirius red and Masson's trichrome staining based assay; assay type: functional, organism-based; conditions: dose 15-30 mg/kg
Mus musculus [25] = assay: Antifibrotic activity against CCL4-induced C57BL/6J mouse hepatic fibrosis model assessed as reduction in collagen 1 expression in liver at 15 to 30 mg/kg, po administered via gavage for 4 weeks starting from 5th week of CCL4 stimulation by Western blot analysis; assay type: functional, organism-based; conditions: dose 15-30 mg/kg

Nuclear factor NF-kappa-B complex (Homo sapiens), sequence (P19838 whole entry, looked up): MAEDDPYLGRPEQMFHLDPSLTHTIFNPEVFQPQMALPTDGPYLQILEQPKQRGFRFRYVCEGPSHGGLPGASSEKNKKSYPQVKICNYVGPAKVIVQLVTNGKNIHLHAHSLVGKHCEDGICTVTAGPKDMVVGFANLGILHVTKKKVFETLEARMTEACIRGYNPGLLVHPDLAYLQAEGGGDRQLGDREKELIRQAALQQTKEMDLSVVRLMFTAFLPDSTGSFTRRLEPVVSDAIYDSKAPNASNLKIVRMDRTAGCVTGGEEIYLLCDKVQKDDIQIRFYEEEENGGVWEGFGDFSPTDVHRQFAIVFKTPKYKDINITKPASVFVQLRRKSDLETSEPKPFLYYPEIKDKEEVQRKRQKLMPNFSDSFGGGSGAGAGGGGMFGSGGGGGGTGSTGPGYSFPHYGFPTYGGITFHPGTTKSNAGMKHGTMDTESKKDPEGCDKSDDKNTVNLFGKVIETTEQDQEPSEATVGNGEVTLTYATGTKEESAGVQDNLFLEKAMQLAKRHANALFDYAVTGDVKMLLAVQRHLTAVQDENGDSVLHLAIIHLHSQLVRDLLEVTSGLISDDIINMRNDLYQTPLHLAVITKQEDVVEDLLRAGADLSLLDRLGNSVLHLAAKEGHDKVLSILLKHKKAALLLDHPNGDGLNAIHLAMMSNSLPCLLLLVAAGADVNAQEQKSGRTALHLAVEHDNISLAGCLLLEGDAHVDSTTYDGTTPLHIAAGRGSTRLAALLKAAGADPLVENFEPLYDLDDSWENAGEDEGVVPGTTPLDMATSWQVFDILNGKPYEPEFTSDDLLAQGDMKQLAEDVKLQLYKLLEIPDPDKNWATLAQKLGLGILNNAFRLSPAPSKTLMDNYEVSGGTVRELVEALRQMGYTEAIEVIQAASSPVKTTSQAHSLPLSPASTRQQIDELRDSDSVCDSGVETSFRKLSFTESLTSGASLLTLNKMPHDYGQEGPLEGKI
Nuclear factor NF-kappa-B complex (Homo sapiens), sequence (Q00653 whole entry, looked up): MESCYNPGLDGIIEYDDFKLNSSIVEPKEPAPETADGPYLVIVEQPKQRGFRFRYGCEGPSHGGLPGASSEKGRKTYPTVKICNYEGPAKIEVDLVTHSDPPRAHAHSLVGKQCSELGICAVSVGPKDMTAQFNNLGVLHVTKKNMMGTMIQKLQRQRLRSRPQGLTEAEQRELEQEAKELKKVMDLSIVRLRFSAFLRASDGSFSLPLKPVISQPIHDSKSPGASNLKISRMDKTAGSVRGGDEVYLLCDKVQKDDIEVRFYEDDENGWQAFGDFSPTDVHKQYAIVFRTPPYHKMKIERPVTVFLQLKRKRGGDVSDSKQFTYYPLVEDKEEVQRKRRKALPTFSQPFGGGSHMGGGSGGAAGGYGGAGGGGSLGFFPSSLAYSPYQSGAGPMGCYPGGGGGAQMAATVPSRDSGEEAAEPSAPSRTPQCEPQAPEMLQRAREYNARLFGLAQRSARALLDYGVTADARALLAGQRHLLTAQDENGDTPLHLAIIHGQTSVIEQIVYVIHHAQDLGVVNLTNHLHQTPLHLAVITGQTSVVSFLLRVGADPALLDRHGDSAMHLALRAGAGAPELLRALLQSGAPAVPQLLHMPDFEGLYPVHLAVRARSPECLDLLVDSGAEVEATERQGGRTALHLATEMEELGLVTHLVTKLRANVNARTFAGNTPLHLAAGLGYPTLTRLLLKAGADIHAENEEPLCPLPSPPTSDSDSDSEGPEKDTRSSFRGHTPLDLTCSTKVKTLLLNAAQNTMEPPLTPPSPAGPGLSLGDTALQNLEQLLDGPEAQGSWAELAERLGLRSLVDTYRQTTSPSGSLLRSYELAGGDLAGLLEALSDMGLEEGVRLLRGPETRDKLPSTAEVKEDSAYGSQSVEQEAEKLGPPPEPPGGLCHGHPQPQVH
Nuclear factor NF-kappa-B complex (Homo sapiens), sequence (Q04206 whole entry, looked up): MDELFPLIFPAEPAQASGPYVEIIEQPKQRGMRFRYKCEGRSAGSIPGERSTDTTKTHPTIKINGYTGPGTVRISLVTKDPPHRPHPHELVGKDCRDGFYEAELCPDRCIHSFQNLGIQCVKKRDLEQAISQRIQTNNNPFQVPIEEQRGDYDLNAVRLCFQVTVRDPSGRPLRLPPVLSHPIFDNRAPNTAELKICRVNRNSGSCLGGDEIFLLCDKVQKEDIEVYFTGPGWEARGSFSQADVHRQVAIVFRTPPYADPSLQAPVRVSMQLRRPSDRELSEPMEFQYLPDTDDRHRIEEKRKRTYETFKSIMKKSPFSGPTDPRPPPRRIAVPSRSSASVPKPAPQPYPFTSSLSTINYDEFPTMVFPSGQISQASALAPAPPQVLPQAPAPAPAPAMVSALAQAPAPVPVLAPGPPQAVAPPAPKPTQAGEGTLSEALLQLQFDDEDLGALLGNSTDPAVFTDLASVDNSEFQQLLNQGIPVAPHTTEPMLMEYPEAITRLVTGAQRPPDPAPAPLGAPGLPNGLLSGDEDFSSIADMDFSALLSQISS
Mothers against decapentaplegic homolog 3 (Homo sapiens), sequence (P84022 2-425 limits assumed): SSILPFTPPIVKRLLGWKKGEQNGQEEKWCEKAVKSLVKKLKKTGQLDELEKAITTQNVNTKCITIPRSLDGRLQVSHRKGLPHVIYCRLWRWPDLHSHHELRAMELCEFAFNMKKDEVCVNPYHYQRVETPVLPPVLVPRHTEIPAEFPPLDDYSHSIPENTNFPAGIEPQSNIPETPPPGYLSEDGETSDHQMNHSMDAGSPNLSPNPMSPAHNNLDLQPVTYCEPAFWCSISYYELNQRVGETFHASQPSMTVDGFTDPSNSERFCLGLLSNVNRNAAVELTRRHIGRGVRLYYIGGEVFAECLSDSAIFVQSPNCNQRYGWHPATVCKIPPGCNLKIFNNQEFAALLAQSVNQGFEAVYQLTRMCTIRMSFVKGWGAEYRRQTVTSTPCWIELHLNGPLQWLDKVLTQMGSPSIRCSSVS

COC(=O)CCC[C@@H]1[C@H]2CCCN3CCC[C@H](CN1C(=O)C(C)c1ccc(-c4ccccc4)c(F)c1)[C@@H]23 (stereo partly specified)
inhibition [1]: Dose-dependent-effect | inhibition (LX-2): Dose-dependent-effect | inhibition [2]: inactive | inhibition (Mus musculus [3]): Active | Activity (Mus musculus [4]): Active | Activity (Mus musculus [5]): Active | Activity (Mus musculus [6]): Active | inhibition (RAW264.7 [7]): Active | inhibition (RAW264.7 [8]): Active | Activity (Mus musculus [9]): Active | inhibition (Mus musculus [10]): Active | Activity (Mus musculus [11]): Active | fold change (FC) (RAW264.7 [12]): 0.59 | inhibition (Mus musculus [13]): Active | inhibition (Mus musculus [14]): Active | inhibition (Mus musculus [15]): inactive | Activity (Mus musculus [16]): Active | inhibition (Mus musculus [17]): inactive | inhibition (Mus musculus [18]): Active | Activity (Mus musculus [19]): Active; Significant Alleviation Observed | inhibition [20]: Dose-dependent-effect | inhibition (Mus musculus [21]): inactive | inhibition (Mus musculus [22]): Active | IC50 at 48 h [23]: 38.2 µM | Activity (Mus musculus [24]): Active; Dramatically Decreased The Collagen Deposition | Activity (Mus musculus [25]): Active
